Results as given in PubChem BioAssay (NCI).
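Values below derive from 48-hour exposures of cells grown in 96-well plates, with endpoints linearly interpolated between the two concentrations bracketing the appropriate inhibition level. Here, GI50 denotes the concentration required for 50% inhibition of growth. TGI is the concentration that stops growth completely.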

What was measured:
Test in all cases: growth of human tumour cells (NCI), 48 h
[1] = tested on: HS 578T breast
[2] = tested on: MALME-3M melanoma
[3] = tested on: TK-10 renal
[4] = tested on: HCC-2998 colon
[5] = tested on: OVCAR-4 ovarian
[6] = tested on: CAKI-1 renal
[7] = tested on: HOP-92 NSCLC
[8] = tested on: SK-MEL-5 melanoma
[9] = tested on: CCRF-CEM leukemia
[10] = tested on: OVCAR-3 ovarian
[11] = tested on: MDA-MB-435
[12] = tested on: NCI-H226 lung
[13] = tested on: A549 NSCLC
[14] = tested on: NCI-H460 lung
[15] = tested on: SNB-19 CNS
[16] = tested on: UACC-257 melanoma
[17] = tested on: SW-620 colon
[18] = tested on: 786-0 renal
[19] = tested on: MOLT-4 leukemia
[20] = tested on: SK-MEL-28 melanoma
[21] = tested on: DU-145 prostate
[22] = tested on: K-562 leukemia
[23] = tested on: SN12C renal
[24] = tested on: SF-539 CNS
[25] = tested on: A498 renal
[26] = tested on: OVCAR-8 ovarian
[27] = tested on: SK-MEL-2 melanoma
[28] = tested on: MCF7 breast
[29] = tested on: ACHN renal
[30] = tested on: T-47D breast
[31] = tested on: UACC-62 melanoma
[32] = tested on: HOP-62 NSCLC
[33] = tested on: SR leukemia
[34] = tested on: HT29 colon
[35] = tested on: HCT-116 colon
[36] = tested on: COLO 205 colon
[37] = tested on: KM12 colon
[38] = tested on: SK-OV-3 ovarian
[39] = tested on: MDA-MB-231 breast
[40] = tested on: BT-549 breast
[41] = tested on: SF-295 CNS
[42] = tested on: EKVX NSCLC
[43] = tested on: NCI/ADR-RES ovarian
[44] = tested on: IGROV1 ovarian
[45] = tested on: SF-268 CNS
[46] = tested on: HCT-15 colon
[47] = tested on: SNB-75 CNS
[48] = tested on: RPMI-8226 leukemia
[49] = tested on: PC-3 prostate
[50] = tested on: HL-60(TB) leukemia
[51] = tested on: OVCAR-5 ovarian
[52] = tested on: U251 CNS
[53] = tested on: NCI-H522 lung

With Fc1ccc(-c2cc3nc(C(Cl)Cl)nc(-c4ccc(Cl)cc4)n3n2)cc1 the GI50 [1] was > 100 µM, the TGI [1] was > 100 µM and the GI50 [2] was > 100 µM. The TGI [2] was > 100 µM, the GI50 [3] was 7.6 µM and the TGI [3] was > 100 µM. The GI50 [4] was 1.54 µM, the TGI [4] was 3.14 µM and the GI50 [5] was 3.11 µM. For the same compound, the TGI [5] was > 100 µM, the GI50 [6] was 2.96 µM and the TGI [6] was > 100 µM. The GI50 [7] was 4.66 µM, the TGI [7] was > 100 µM and the GI50 [8] was > 100 µM. For the same compound, the TGI [8] was > 100 µM, the GI50 [9] was > 100 µM and the TGI [9] was > 100 µM. The GI50 [10] was 2.02 µM, the TGI [10] was 4.5 µM and the GI50 [11] was 6.6 µM. The TGI [11] was > 100 µM, the GI50 [12] was > 100 µM and the TGI [12] was > 100 µM. The GI50 [13] was 1.8 µM, the TGI [13] was 4.53 µM and the GI50 [14] was 1.76 µM. For the same compound, the TGI [14] was 4.69 µM, the GI50 [15] was 2.96 µM and the TGI [15] was > 100 µM. For the same compound, the GI50 [16] was > 100 µM, the TGI [16] was > 100 µM and the GI50 [17] was 2.91 µM. For the same compound, the TGI [17] was > 100 µM, the GI50 [18] was 23.5 µM and the TGI [18] was > 100 µM. The GI50 [19] was 4.25 µM, the TGI [19] was > 100 µM and the GI50 [20] was 8.28 µM. The TGI [20] was > 100 µM, the GI50 [21] was 1.91 µM and the TGI [21] was 5.84 µM. The GI50 [22] was 4.39 µM, the TGI [22] was > 100 µM and the GI50 [23] was > 100 µM. The TGI [23] was > 100 µM, the GI50 [24] was 11.3 µM and the TGI [24] was > 100 µM. For the same compound, the GI50 [25] was 4.95 µM, the TGI [25] was 53.1 µM and the GI50 [26] was 4.03 µM. For the same compound, the TGI [26] was > 100 µM, the GI50 [27] was > 100 µM and the TGI [27] was > 100 µM. For the same compound, the GI50 [28] was 2.45 µM, the TGI [28] was > 100 µM and the GI50 [29] was 1.6 µM. The TGI [29] was 4.03 µM, the GI50 [30] was 3.91 µM and the TGI [30] was > 100 µM. The GI50 [31] was > 100 µM, the TGI [31] was > 100 µM and the GI50 [32] was 2.53 µM. The TGI [32] was > 100 µM, the GI50 [33] was 3.01 µM and the TGI [33] was > 100 µM. The GI50 [34] was 1.66 µM, the TGI [34] was 5.36 µM and the GI50 [35] was 3.3 µM. For the same compound, the TGI [35] was > 100 µM, the GI50 [36] was 1.84 µM and the TGI [36] was 4.05 µM. For the same compound, the GI50 [37] was 3.01 µM, the TGI [37] was > 100 µM and the GI50 [38] was 3.23 µM. For the same compound, the TGI [38] was > 100 µM, the GI50 [39] was 4.08 µM and the TGI [39] was > 100 µM. For the same compound, the GI50 [40] was 94.7 µM, the TGI [40] was > 100 µM and the GI50 [41] was 3.04 µM. For the same compound, the TGI [41] was 9.71 µM, the GI50 [42] was 2.94 µM and the TGI [42] was 14.1 µM. The GI50 [43] was 3.32 µM, the TGI [43] was > 100 µM and the GI50 [44] was > 100 µM. For the same compound, the TGI [44] was > 100 µM, the GI50 [45] was 5.09 µM and the TGI [45] was > 100 µM. For the same compound, the GI50 [46] was 2.5 µM, the TGI [46] was > 100 µM and the GI50 [47] was > 100 µM. The TGI [47] was > 100 µM, the GI50 [48] was 4.55 µM and the TGI [48] was > 100 µM. The GI50 [49] was 3.96 µM, the TGI [49] was > 100 µM and the GI50 [50] was 2 µM. For the same compound, the TGI [50] was > 100 µM, the GI50 [51] was 3.92 µM and the TGI [51] was > 100 µM. The GI50 [52] was 1.79 µM, the TGI [52] was 4.36 µM and the GI50 [53] was 3.72 µM. For the same compound, the TGI [53] was > 100 µM.
